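In this assay, cells in 96-well plates receive the compound at five concentrations for 48 hours. Endpoints are linearly interpolated between the surrounding concentrations. TGI marks complete inhibition of growth.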
How the values were obtained:
Assay in all cases: NCI tumour cell line growth inhibition, 48 h
[1] = system: DLD-1 colon
[2] = system: DMS 114 small cell lung
[3] = system: RXF-631 renal
[4] = system: LXFL 529 NSCLC
[5] = system: KM20L2 colon
[6] = system: DMS 273 small cell lung
[7] = system: SNB-78 CNS
[8] = system: HOP-18 NSCLC
[9] = system: SN12K1 renal
[10] = system: P388 leukemia

Compound	TGI [1] [µM]	TGI [2] [µM]	TGI [3] [µM]	TGI [4] [µM]	TGI [5] [µM]	TGI [6] [µM]	TGI [7] [µM]	TGI [8] [µM]	TGI [9] [µM]	TGI [10] [µM]
O=C1CN(c2ccccc2)C(=O)C1C(=O)Nc1ccc(Cl)c(Cl)c1 (stereo unspecified)	23	13.3	14.3	14.3	16.8	15.1	–	–	–	–
CCc1nc2c([nH]1)C(=O)c1ccccc1C2=O	> 100	70.6	–	–	–	> 100	> 100	–	–	–
O=C(CCl)Nc1ccc(C(=O)N/N=C/c2ccc(Cl)cc2)cc1	4.93	2.94	–	3.2	27.4	4.12	15.8	–	–	–
O=c1ccn([C@@H]2C=C(CO)[C@@H](O)[C@H]2O)c(=O)[nH]1	> 625	–	–	–	> 625	> 625	–	> 625	> 625	> 625
O=C(/C=C/CC(O)(c1ccccc1)c1ccccc1)Nc1ccccc1Cl	> 100	> 100	–	> 100	> 100	–	–	–	–	–

— PubChem BioAssay (NCI)
